Reference: EPA's ToxValDB 9.5 (doi:10.2903/j.efsa.2014.3815)

Tests used:
[1] = test system: Tagia sp.; details: acute; duration: 14 days; mortality
[2] = test system: Pimephales promelas; details: chronic/long-term; duration: 37 days; growth
[3] = test system: Lepomis macrochirus; details: acute; duration: 96 hours; mortality
[4] = test system: Daphnia magna; details: chronic/long-term; duration: 21 days; reproduction
[5] = test system: Landoltia sp.; details: acute; duration: 14 days; frond number
[6] = test system: Rattus norvegicus; details: for LD50: acute, mortality
[7] = test system: Canidae; details: subchronic; duration: 90 days; oral; Dog Other; histopathology: nonneoplastic
[8] = test system: Oncorhynchus mykiss
[9] = test system: Oryctolagus sp.; details: developmental; development
[10] = test system: Cyprinus carpio; details: acute; duration: 96 hours; mortality
[11] = test system: Anas platyrhynchos
[12] = test system: Macromiidae; details: acute; duration: 72 hours; biomass
[13] = test system: Apis mellifera; details: acute; duration: 48 hours; dermal; mortality
[14] = test system: Pleurozium sp.; details: chronic/long-term; duration: 120 hours; growth
[15] = test system: Poecilus cupreus; experiment: LR50; higher = less toxic; details: acute; mortality

Q: `COc1nc(C)nc(NC(=O)NS(=O)(=O)c2ccccc2CCC(F)(F)F)n1` [Prosulfuron] was tested. Which LC50 [1] did it give?
A: > 1000 mg/kg

Q: And the NOEC [2]?
A: 150 mg/L

Q: What about the LC50 [3] of the same molecule?
A: > 100 µg/mL

Q: What about the NOEC [4] of the same molecule?
A: 148 mg/L

Q: What about the NOEC [5] of the same molecule?
A: 0.000827 mg/L

Q: What about the LD50 ([6]; M/F) of the same molecule?
A: 986 mg/kg

Q: What about the LD50 [6] of the same molecule?
A: > 755 mg/kg

Q: What about the NOAEL ([6]; chronic) of the same molecule?
A: 12 mg/kg-day

Q: And the NOAEL ([6]; chronic, duration: 18 months, histopathology: nonneoplastic)?
A: 1.7 mg/kg-day

Q: What about the NOAEL ([6]; subchronic, duration: 90 days) of the same molecule?
A: 3 mg/kg-day

Q: What about the NOAEL [7] of the same molecule?
A: 6 mg/kg-day

Q: And the LC50 ([8]; acute, duration: 96 hours, mortality)?
A: > 160 µg/mL

Q: And the NOEC ([8]; chronic/long-term, duration: 21 days, growth)?
A: 5.8 mg/L

Q: And the NOAEL [9]?
A: 10 mg/kg-day

Q: And the LC50 [10]?
A: > 100 µg/mL

Q: What about the LD50 ([11]; acute, oral, unspecified, mortality) of the same molecule?
A: 1300 mg/kg

Q: What about the NOEL ([11]; reproductive) of the same molecule?
A: 2.95 mg/kg-day

Q: And the NOEC [12]?
A: 0.831 mg/L

Q: What about the LD50 [13] of the same molecule?
A: > 100 µg/piece

Q: What about the NOEC [14] of the same molecule?
A: 0.00278 mg/L

Q: What about the LR50 [15] of the same molecule?
A: > 15 g/ha
